Test results reported in US5614504A, “Method of making inosine monophosphate derivatives and immunopotentiating uses thereof” (The University of South Florida, priority 1995, dated 1997).
Read-outs that look alike come from different tables or passages of the source.

Legend:
L. monocytogenes EGD = assay: Listeria infection mortality; format: in vivo, BALB/c mice; conditions: for Mortality: Dead/Total: 1 dose, Day -5, day 4
[1] = test system: Friend Leukemia Virus (FLV); assay: Survival of mice infected with Friend Leukemia Virus; format: in vivo, BALB/c mice; conditions: 1 mg/kg/day i.p. day 3 to day 13; P<0.004 Wilcoxon
Method: Control mice were treated with saline intraperitoneally from day 3 to day 13 following infection, and Me-IMP treated mice were treated with 1 mg/kg/day from day 3 to day 13, and the day of death was recorded.

[2] = Further set: percent hydrolysis by 5'-nucleotidase (Table 1B); format: in vitro ADME, Crotalus atrox; conditions: rattlesnake, 20 minutes incubation, 200 μl
Method: (§1) Nucleotide samples (40-60 nmoles) were incubated at 37° C. for 10 minutes with 0.02 units 5'-nucleotidase in a total volume of 100 μl containing […] HEPES, pH 7.3 and […] MgCl2. […] Phosphate was determined by the absorbance of 820 nm. Blanks consisting of nucleotide but no enzyme were tested in parallel to correct for non-enzymatic hydrolysis.
The protocol was as hereinabove except that the first incubation was for 20 minutes in a total volume of 200 μl, 0.1 mM HEPES and 10 mM MgCl2. The percent hydrolysis of nucleotides was performed in duplicate for each assay.

[3] = test system: human peripheral blood lymphocytes (HPBL); assay: Response of normal HPBL to PHA (tritiated thymidine incorporation); format: cell-based; conditions: 0.1-100 μg/ml; FIG. 1
Method: (§2) In vitro: Both human peripheral blood lymphocytes (HPBL) and mouse spleen lymphocytes (MSL) were employed. […] For HPBL transformation, PHA and PWM were used at 0.5 μg/ml. For MSL transformation, Con A was used at 0.5 μg/ml, phytohemagglutinin (PHA, Murex Diagnostics, Atlanta, Ga.) at 0.5 μg/ml and lipopolysaccharide endotoxin (LPS, Sigma, St. Louis, Mo.) at 10 μg/ml.
(§3) They were cultured in microwell plates at 1.5×10^6 cells/ml of minimal essential media (MEM, Gibco Labs, Grand Island, N.Y.) with 5% fetal calf serum (FCS, Hyclone Labs, Logan, Utah) and tested for their proliferative response to mitogens as measured by incorporation of (^3 H) tritiated thymidine (New England Nuclear, Wilmington Del., […]; 2.5 μCi/ml) during a terminal pulse followed by liquid scintillation spectrometry.

Acute toxicity (LD50) = conditions: in vivo
spleen lymphocytes = assay: In vitro response to mitogens following in vivo oral administration; parameters: species or system mice; conditions: oral Me-IMP for five days, 0-100 mg/kg
Method: In vivo: Compounds were administered orally, by garage, or intraperitoneally. At termination, spleens were obtained as described in Florentin et al. (1982) and cells were prepared for proliferative response with Con A=0.5 μg/ml, PHA=0.5 μg/ml or LPS=0.5 μg/ml.
Spleen lymphocytes were obtained from mice that had been orally administered Me-IMP for five days, range of 0-100 mg/kg body weight, and then sacrificed. The spleen lymphocytes were incubated with PHA (0.5 μg/ml) or Con A (0.5 μg/ml) for 48 hours. Cultures were pulsed with tritiated thymidine for the last 18 hours.

CD4+ lymphocytes = assay: PHA response of CD4+ enriched human lymphocytes; format: cell-based; conditions: MIMP 1-200 μg/ml, 3 donors, p <0.01
Text: Human CD4+ and CD8+ lymphocyte subsets were obtained from normal controls using commercial panning techniques (Applied Immune Sciences, Santa Clara, Calif.).
Human peripheral blood lymphocytes are on average approximately 80% T lymphocytes and 20% B lymphocytes and of the T lymphocytes, 2/3 are of the CD4+ helper/inducer phenotype and 1/3 are the CD8+ suppressor/cytotoxic phenotype. Enrichment of CD4+ T cells or CD8+ T cells can be achieved through reduction of the other phenotype (>98%) removal using adherence to monoclonal antibody-coated flasks (panning).

influenza virus = format: in vivo, NMRI mice; conditions: for % mortality: Table 7, 200 μg, i.n.
[4] = test system: human peripheral blood lymphocytes (HPBL); assay: Reversal of suppression of HPBL PHA response by HIV gp41 peptide, interferon α and PGE2; format: cell-based; conditions: for effect on gp41 peptide-suppressed PHA proliferation: MIMP 0.1-100 μg/ml
Text: A 17 amino acid sequence from the gp41 portion of the gp16O peptide of the human immunodeficiency virus (HIV) was synthesized and kindly provided to us by M. Strand (Johns Hopkins University, Baltimore, Md.) (Reugg and Strand, 1990).
Prostaglandin E2 was obtained from Sigma Chemicals (St. Louis, Mo.) and recombinant interferon-α (IFNα, Intron A) was obtained from Schering Corp. (Kenilworth, N.J.).
A synthetic 17 amino acid peptide representing the immunosuppressive site of the intramembranous gp41 portion of the human immunodeficiency virus (HIV) was tested on lymphocytes from controls. […] The effect of MIMP from 0.1-100 μg/ml was examined in combination with varying degrees of inhibition by the peptide.
Virus infections are associated with depressed lymphoproliferative responses.

IL-2 = assay: PHA-induced IL-2 production; format: cell-based; conditions: preliminary data
in vitro = in vitro ADME, Crotalus atrox; conditions: rattlesnake, pH 7.3; 0.02 units 5'-nucleotidase, 37° C., 10 minutes; four experiments; read-out: Hydrolysis (%)
Method: as §1

[5] = test system: mouse spleen lymphocytes (MSL); assay: Mouse spleen lymphocyte proliferation to Con A; format: cell-based
Method: as §2, §3

For `COP(=O)(O)OC[C@H]1O[C@@H](n2cnc3c(=O)[nH]cnc32)[C@H](O)[C@@H]1O` [Me-IMP, Methyl-5'-inosine-monophosphate], the MST and survivors (L. monocytogenes EGD; 0.1 to 10 mg/kg, combined i.p. and p.o. from five days prior to challenge) was “increased MST and survivors”, the “mean survival time (MST) and absolute number of survivors” value (L. monocytogenes EGD; by mouth and at 1 and 10 mg/kg by i.p. injection, five days prior to challenge) was “increased mean survival time (MST) and the absolute number of survivors” and the “Mortality: Dead/Total” value (L. monocytogenes EGD; scheme N1 2: MIMP 1.0 per os) was 2/3. For the same molecule, the “Mortality: Dead/Total” value (L. monocytogenes EGD; scheme N1 3: MIMP 10.0 per os) was 1/8, the “mean survival time (MST)” value [1] was “larger mean survival time” and the metabolised at 20 min ([2]; read-out: Percent hydrolysis by 5'-nucleotidase, Assay 1) was 1.5%. The metabolised at 20 min ([2]; read-out: Percent hydrolysis by 5'-nucleotidase, Assay 2) was 2.2%, the metabolised at 20 min ([2]; read-out: Percent hydrolysis by 5'-nucleotidase, Assay 3) was 2.6% and the “relative activity on HPBL response to PHA” value [3] was “more active”. For the same molecule, the LD50 (Acute toxicity (LD50); ip, intraperitoneally) was greater than 500 mg/kg, the LD50 (Acute toxicity (LD50); po, orally) was greater than 5000 mg/kg and the “Con A response of spleen lymphocytes” value (spleen lymphocytes) was “stimulated”. For the same molecule, the “PHA response of spleen lymphocytes” value (spleen lymphocytes) was “stimulated”, the “PHA response of CD4+ lymphocytes” value (CD4+ lymphocytes) was “significantly augmented” and the “% mortality” value (influenza virus; -1 h) was 80%. For the same molecule, the “% mortality” value (influenza virus; -1 d) was 60%, the “number of survivors and mean survival time (MST)” value (influenza virus; mouse, in vivo) was “increased the number of survivors and mean survival time” and the “survival and MST” value (influenza virus; mouse, in vivo) was “increased survival and MST”. For the same molecule, the “effect on gp41 peptide-suppressed PHA proliferation” value ([4]; inhibition more severe (>50%)) was “not significant”, the “effect on gp41 peptide-suppressed PHA proliferation” value ([4]; peptide-induced suppression less than 50%) was “restored the proliferative responses to near-normal ranges” and the “effect on rIFN-α inhibition of PHA response” value ([4]; MIMP 1, 10, 100 μg/ml, 10 and 100 units/ml IFN α) was “reverse the inhibition when it is moderate”. The “effect on PGE2 inhibition of PHA response” value ([4]; MIMP 1-100 μg/ml, PGE2 10^-5 M) was “reverse the inhibition”, the “effect on PHA-induced IL-2” value (IL-2) was “only a small effect” and the metabolised at 10 min (in vitro) was 2.1%. For the same molecule, the “relative potency, in vitro mouse lymphocyte proliferation” value [5] was “most potent” and the “proliferative responses of MSL to Con A” value ([5]; 0.1, 1, 10, 100 μg/ml, Con A 0.5 μg/ml) was “stimulated the proliferative responses”.
